Test results from US11840546B2, “Imidazopyridazine compounds and uses thereof” (Incyte Corporation, priority 2020, dated 2023).

Legend:
[1] = target: ALK2 (aa 147-end) (Homo sapiens (Human), UniProt Q04771); test: ALK2 HTRF Assay; type: biochemical; conditions: HTRF enzymatic assay, 3 μM ATP, 0.5 nM ALK2, 25° C., 2 hr
Description: ALK2 (aa 147-end) was obtained from BPS biosciences. The enzymatic assays were conducted in white 384-well polystyrene plates in a final volume of 8 μL. The inhibitors were serially diluted in DMSO and added to the plate wells prior to addition of the other reaction components. The assays were carried out at 25° C. in the assay buffer (50 mM HEPES, pH 7.0, 10% Glycerol, 0.01% Brij50, 10 mM MgCl2, 1 mM EGTA, 5 mM DTT, and 0.01% BSA), containing 50 nM LANCE Ultra ULight™-DNA Topoisomerase 2-alpha peptide (Perkin Elmer TRF0130), and 3 μM ATP. The final concentration of DMSO in the assay was […] and the enzyme concentration was 0.5 nM for ALK2. The reactions were allowed to proceed for 2 hr for ALK2 after which, the reaction was quenched by addition of EDTA at a final concentration of 20 mM along with 1.5 nM LANCE Ultra Europium-anti-phospho-DNA Topoisomerase 2-alpha (Thr1342) antibody (Perkin Elmer TRF0218). The reaction was incubated at 25° C. for 1 hr and read on a PHERAstar FS plate reader (BMG Labtech). IC50 determination was performed by fitting percent control activity versus the log of the inhibitor concentration using the IDBS XLFit and GraphPad Prism 5.0 software.

[2] = test system: ALK2 mutant DIPG cell; conditions: ALK2 mutant DIPG cells; cited from earlier work

Sequence of ALK2 (aa 147-end) (Q04771 147-509 limits assumed): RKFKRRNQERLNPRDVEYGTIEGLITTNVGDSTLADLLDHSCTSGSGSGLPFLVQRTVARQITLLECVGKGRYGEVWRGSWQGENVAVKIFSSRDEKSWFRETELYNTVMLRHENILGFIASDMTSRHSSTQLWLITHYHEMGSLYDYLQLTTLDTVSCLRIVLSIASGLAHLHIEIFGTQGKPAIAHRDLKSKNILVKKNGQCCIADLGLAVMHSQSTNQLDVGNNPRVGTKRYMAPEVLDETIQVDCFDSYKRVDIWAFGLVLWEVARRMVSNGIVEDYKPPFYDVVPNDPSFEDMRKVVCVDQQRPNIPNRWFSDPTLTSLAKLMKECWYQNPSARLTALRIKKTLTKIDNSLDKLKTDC

Row | Structure (SMILES) | IC50 [1] [nM] | inhibition of ALK2 mutant DIPG cell viability [2]
1 | CCn1cnc(-c2ccc3c(-c4cnc5cc(-c6ccc(CN7CC8CCC7CC8)cc6)c(C)nn45)ccnc3n2)c1 [Example 2, 2-(4-(3-(7-(1-Ethyl-1H-imidazol-4-yl)-1,8-naphthyridin-4-yl)-6-methylimidazo[1,2-b]pyridazin-7-yl)benzyl)-2-azabicyclo[2.2.2]octane] | ≤ 1 | 
2 | Cc1cnn(-c2ccc3c(-c4cnc5cc(-c6ccc(CN7CC8CCC7CC8)cc6)c(C)nn45)ccnc3n2)n1 [Example 3, 2-(4-(6-Methyl-3-(7-(4-methyl-2H-1,2,3-triazol-2-yl)-1,8-naphthyridin-4-yl)imidazo[1,2-b]pyridazin-7-yl)benzyl)-2-azabicyclo[2.2.2]octane] | ≤ 1 | 
3 | c1ccc2c(-c3cnn4cc(-c5ccc(N6CCNCC6)cc5)cnc34)ccnc2c1 [LDN-19318917] |  | significant inhibition

Second part, led by results:

Row | IC50 [1] [nM] | Structure (SMILES) | inhibition of ALK2 mutant DIPG cell viability [2]
4 | ≤ 1 | Cc1cnn(-c2ccc3c(-c4cnc5cc(-c6ccc([C@]78C[C@H]7CN(C7CCOCC7)C8)cc6)c(C)nn45)ccnc3n2)n1 (stereo in doubt) [Example 4, 2-(4-Methyl-2H-1,2,3-triazol-2-yl)-5-(6-methyl-7-(4-((1S,5R)-3-(tetrahydro-2H-pyran-4-yl)-3-azabicyclo[3.1.0]hexan-1-yl)phenyl)imidazo[1,2-b]pyridazin-3-yl)-1,8-naphthyridine] | 
5 | ≤ 1 | CCn1cnc(-c2ccc3c(-c4cnc5cc(-c6ccc([C@@]78C[C@@H]7CN(C7CCOCC7)C8)cc6)c(C)nn45)ccnc3n2)c1 [Example 1, 2-(1-Ethyl-1H-imidazol-4-yl)-5-(6-methyl-7-(4-((1R,5S)-3-(tetrahydro-2H-pyran-4-yl)-3-azabicyclo[3.1.0]hexan-1-yl)phenyl)imidazo[1,2-b]pyridazin-3-yl)-1,8-naphthyridine] | 
